Calls of active or inactive are those of the source. The calls are words filed in the database; no cut-off is given here.
Key:
[1] = molecular target: Peptidyl-prolyl cis-trans isomerase NIMA-interacting 1 (Homo sapiens, UniProt Q13526, S16A/Y23A); test: Binding affinity to N-terminal MBP fused and Texas-red-labeled full-length human Pin1 S16A/Y23A mutant expressed in Escherichia coli assessed as increase in fluorescence anisotropy by spectrofluorimetry
[2] = test system: Peptidyl-prolyl cis-trans isomerase NIMA-interacting 1 (Homo sapiens), Q13526 [S16A,Y23A]; test: Binding affinity to N-terminal MBP fused and Texas-red-labeled full-length human Pin1 S16A/Y23A mutant expressed in Escherichia coli assessed as increase in fluorescence anisotropy at 5 uM by spectrofluorimetry
[3] = test system: HeLa; test: Growth inhibition of human HeLa cells at 5 uM incubated for 3 days by MTT assay; type: functional
[4] = test system: HeLa; test: Drug uptake in human HeLa cells assessed as mean fluorescence intensity at 5 uM using FITC-labeled compound incubated for 2 hrs by flow cytometry (reference value: 86); type: ADME, cell-based
[5] = test system: HeLa; test: Antiproliferative activity against human HeLa cells assessed as reduction in cell growth incubated for 72 hrs by MTT assay; type: functional, cell-based; details: hela
[6] = molecular target: Peptidyl-prolyl cis-trans isomerase NIMA-interacting 1 (Homo sapiens) (UniProt Q13526); test: Inhibition of Pin1 in human HeLa cells assessed as increase in PML protein levels at 0.2 to 5 uM incubated for 2 hrs by Western blotting method relative to untreated control; type: cell-based

SMILES	Kd ([1]; read-out: Kd)	Activity [2]	also measured
C[C@@H]1NC(=O)[C@H](CCCNC(=N)N)NC(=O)[C@H](Cc2ccc3ccccc3c2)NC(=O)[C@H]2CCCCN2C(=O)[C@@H]([C@H](C)O)NC(=O)[C@H](c2ccccc2)NC(=O)[C@H](Cc2cnc[nH]2)NC(=O)c2cc3cc(c2)C(=O)NC[C@H](NC(=O)[C@@H](C)NC1=O)C(=O)N[C@@H](Cc1ccccc1)C(=O)N[C@@H](Cc1ccc2ccccc2c1)C(=O)N[C@@H](CCCNC(=N)N)C(=O)N[C@@H](CCCNC(=N)N)C(=O)N[C@@H](CCCNC(=N)N)C(=O)N[C@@H](CCCNC(=N)N)C(=O)N[C@H](C(=O)N[C@@H](CCCCN)C(=O)O)CNC3=O	1400 nM	> 50%	–
CC[C@H](C)[C@@H]1NC(=O)[C@H](Cc2ccccc2)N(C)C(=O)c2cc3cc(c2)C(=O)NC[C@H](NC(=O)[C@@H](C)NC(=O)[C@H](C)NC(=O)[C@H](CCCNC(=N)N)NC(=O)[C@H](Cc2ccc4ccccc4c2)NC(=O)[C@H]2CCCCN2C(=O)[C@@H](CCC(=O)O)NC1=O)C(=O)N[C@@H](Cc1ccccc1)C(=O)N[C@@H](Cc1ccc2ccccc2c1)C(=O)N[C@@H](CCCNC(=N)N)C(=O)N[C@@H](CCCNC(=N)N)C(=O)N[C@@H](CCCNC(=N)N)C(=O)N[C@@H](CCCNC(=N)N)C(=O)N[C@H](C(=O)N[C@@H](CCCCN)C(=O)O)CNC3=O	1250 nM	> 50%	–
C[C@@H]1NC(=O)[C@H](CCCNC(=N)N)NC(=O)[C@H](Cc2ccc3ccccc3c2)NC(=O)[C@H]2CCCCN2C(=O)[C@@H](CCC(=O)O)NC(=O)[C@H](Cc2cnc[nH]2)NC(=O)[C@H](c2ccccc2)NC(=O)c2cc3cc(c2)C(=O)NC[C@H](NC(=O)[C@@H](C)NC1=O)C(=O)N[C@@H](Cc1ccccc1)C(=O)N[C@@H](Cc1ccc2ccccc2c1)C(=O)N[C@@H](CCCNC(=N)N)C(=O)N[C@@H](CCCNC(=N)N)C(=O)N[C@@H](CCCNC(=N)N)C(=O)N[C@@H](CCCNC(=N)N)C(=O)N[C@H](C(=O)N[C@@H](CCCCN)C(=O)O)CNC3=O	1470 nM	> 50%	–
C[C@H]1NC(=O)[C@H](CCCNC(=N)N)NC(=O)[C@H](CCCNC(=N)N)NC(=O)[C@H](Cc2ccc3ccccc3c2)NC(=O)[C@H]2CCCCN2C(=O)[C@@H](CC(=O)O)NC(=O)CN(C)C(=O)[C@@H]2CCCN2C(=O)c2cc3cc(c2)C(=O)NC[C@H](NC1=O)C(=O)N[C@@H](Cc1ccccc1)C(=O)N[C@@H](Cc1ccc2ccccc2c1)C(=O)N[C@@H](CCCNC(=N)N)C(=O)N[C@@H](CCCNC(=N)N)C(=O)N[C@@H](CCCNC(=N)N)C(=O)N[C@@H](CCCNC(=N)N)C(=O)N[C@H](C(=O)N[C@@H](CCCCN)C(=O)O)CNC3=O	720 nM	–	–
C[C@H](OP(=O)(O)O)[C@H]1NC(=O)CN(C)C(=O)[C@@H](C)NC(=O)[C@H](CCCCN)NC(=O)[C@H](Cc2ccc(O)cc2)NC(=O)[C@H](Cc2ccc3ccccc3c2)NC(=O)[C@H]2CCCCN2C1=O	240 nM	–	growth inhibition (GI) [3]: inactive; Flu intensity [4]: 193; IC50 [5]: Not Active
C[C@@H]1NC(=O)[C@H](CCCNC(=N)N)NC(=O)[C@H](Cc2ccc3ccccc3c2)NC(=O)[C@@H](C)NC(=O)[C@@H]([C@H](C)O)NC(=O)CN(C)C(=O)[C@@H](C)NC(=O)c2cc3cc(c2)C(=O)NC[C@H](NC(=O)[C@@H](C)NC1=O)C(=O)N[C@@H](Cc1ccccc1)C(=O)N[C@@H](Cc1ccc2ccccc2c1)C(=O)N[C@@H](CCCNC(=N)N)C(=O)N[C@@H](CCCNC(=N)N)C(=O)N[C@@H](CCCNC(=N)N)C(=O)N[C@@H](CCCNC(=N)N)C(=O)N[C@H](C(=O)N[C@@H](CCCCN)C(=O)O)CNC3=O	–	–	Kd [1]: Not Active; growth inhibition (GI) [3]: inactive; Flu intensity [4]: 8730; IC50 [5]: Not Active; inhibition [6]: inactive
C[C@@H]1NC(=O)[C@H](CCCNC(=N)N)NC(=O)[C@H](Cc2ccc3ccccc3c2)NC(=O)[C@H]2CCCCN2C(=O)[C@@H]([C@H](C)O)NC(=O)[C@H](Cc2ccc(F)cc2)NC(=O)[C@@H](Cc2ccccc2)NC(=O)c2cc3cc(c2)C(=O)NC[C@H](NC(=O)[C@@H](Cc2ccccc2)NC1=O)C(=O)N[C@@H](CCCNC(=N)N)C(=O)N[C@@H](Cc1ccc2ccccc2c1)C(=O)N[C@@H](CCCNC(=N)N)C(=O)N[C@@H](Cc1ccccc1)C(=O)N[C@@H](CCCNC(=N)N)C(=O)N[C@@H](CCCNC(=N)N)C(=O)N[C@H](C(=O)N[C@@H](CCCCN)C(=O)O)CNC3=O	450 nM	–	–
C[C@@H]1NC(=O)[C@H](CCCNC(=N)N)NC(=O)[C@H](Cc2ccc3ccccc3c2)NC(=O)[C@H]2CCCCN2C(=O)[C@@H]([C@H](C)O)NC(=O)CNC(=O)[C@H](Cc2ccccc2)N(C)C(=O)c2cc3cc(c2)C(=O)NC[C@H](NC(=O)[C@@H](C)NC1=O)C(=O)N[C@@H](Cc1ccccc1)C(=O)N[C@@H](Cc1ccc2ccccc2c1)C(=O)N[C@@H](CCCNC(=N)N)C(=O)N[C@@H](CCCNC(=N)N)C(=O)N[C@@H](CCCNC(=N)N)C(=O)N[C@@H](CCCNC(=N)N)C(=O)N[C@H](C(=O)N[C@@H](CCCCN)C(=O)O)CNC3=O	1080 nM	> 50%	–
C[C@@H]1NC(=O)[C@H](CCCNC(=N)N)NC(=O)[C@H](Cc2ccc3ccccc3c2)NC(=O)[C@H]2CCCCN2C(=O)[C@@H]([C@H](C)O)NC(=O)[C@H](Cc2ccc(F)cc2)NC(=O)[C@@H](Cc2ccccc2)NC(=O)c2cc3cc(c2)C(=O)NC[C@H](NC(=O)[C@@H](C)NC1=O)C(=O)N[C@@H](Cc1ccccc1)C(=O)N[C@@H](Cc1ccc2ccccc2c1)C(=O)N[C@@H](CCCNC(=N)N)C(=O)N[C@@H](CCCNC(=N)N)C(=O)N[C@@H](CCCNC(=N)N)C(=O)N[C@@H](CCCNC(=N)N)C(=O)N[C@H](C(=O)N[C@@H](CCCCN)C(=O)O)CNC3=O	670 nM	–	–
C[C@@H]1NC(=O)[C@H](CCCNC(=N)N)NC(=O)[C@H](Cc2ccc3ccccc3c2)NC(=O)[C@H]2CCCCN2C(=O)[C@@H](CC(=O)O)NC(=O)CN(C)C(=O)[C@@H]2CCCN2C(=O)c2cc3cc(c2)C(=O)NC[C@H](NC(=O)[C@@H](C)NC1=O)C(=O)N[C@@H](Cc1ccccc1)C(=O)N[C@@H](Cc1ccc2ccccc2c1)C(=O)N[C@@H](CCCNC(=N)N)C(=O)N[C@@H](CCCNC(=N)N)C(=O)N[C@@H](CCCNC(=N)N)C(=O)N[C@@H](CCCNC(=N)N)C(=O)N[C@H](C(=O)N[C@@H](CCCCN)C(=O)O)CNC3=O (stereo in doubt; 3)	870 nM	–	–
C[C@@H]1NC(=O)[C@H](CCCNC(=N)N)NC(=O)[C@H](Cc2ccc3ccccc3c2)NC(=O)[C@H]2CCCCN2C(=O)[C@@H]([C@H](C)O)NC(=O)[C@H](Cc2cnc[nH]2)NC(=O)[C@@H](Cc2ccccc2)NC(=O)c2cc3cc(c2)C(=O)NC[C@H](NC(=O)[C@@H](C)NC1=O)C(=O)N[C@@H](Cc1ccccc1)C(=O)N[C@@H](Cc1ccc2ccccc2c1)C(=O)N[C@@H](CCCNC(=N)N)C(=O)N[C@@H](CCCNC(=N)N)C(=O)N[C@@H](CCCNC(=N)N)C(=O)N[C@@H](CCCNC(=N)N)C(=O)N[C@H](C(=O)N[C@@H](CCCCN)C(=O)O)CNC3=O	1680 nM	–	–
C[C@@H]1NC(=O)[C@H](CCCNC(=N)N)NC(=O)[C@H](Cc2ccc3ccccc3c2)NC(=O)[C@H]2CCCCN2C(=O)[C@@H](CC(=O)O)NC(=O)CN(C)C(=O)[C@@H]2CCCN2C(=O)c2cc3cc(c2)C(=O)NC[C@H](NC(=O)[C@@H](C)NC(=O)[C@@H](C)NC1=O)C(=O)N[C@@H](Cc1ccccc1)C(=O)N[C@@H](Cc1ccc2ccccc2c1)C(=O)N[C@@H](CCCNC(=N)N)C(=O)N[C@@H](CCCNC(=N)N)C(=O)N[C@@H](CCCNC(=N)N)C(=O)N[C@@H](CCCNC(=N)N)C(=O)N[C@H](C(=O)N[C@@H](CCCCN)C(=O)O)CNC3=O	2490 nM	–	–

From ChEMBL document CHEMBL3588828, “A Selective, Cell-Permeable Nonphosphorylated Bicyclic Peptidyl Inhibitor against Peptidyl-Prolyl Isomerase Pin1” (J Med Chem, 2015)
